Paper PMC11574108, “4-Furanylvinylquinoline derivative as a new scaffold for the design of oxidative stress initiator and glucose transporter inhibitor drugs” (Scientific Reports, 2024)

Columns and labels:
Type in all cases: cell-based, human
K562 = assay: Monolayer antiproliferative MTS assay; conditions: 2D model; for IC50: MTS, 72-h incubation
Source text: (§1) The human colon carcinoma cell line HCT 116 with wild-type p53 (p53^+/+) and the human glioblastoma cell line U-251 were obtained from ATCC, while the HCT 116 with a p53 deletion (p53^−/−) was kindly provided by Prof. M. Rusin from the Maria Sklodowska-Curie Memorial Cancer Center and Institute of Oncology in Gliwice, Poland. The human chronic myelogenous leukaemia cell line K562 and the normal human cell dermal fibroblast cell line NHDF were purchased from Sigma-Aldrich and PromoCell, respectively. Both the HCT 116 and U-251 cell lines were cultured in Dulbecco’s modified Eagle’s medium (DMEM) supplemented with 10% inactivated foetal bovine serum (FBS). The DMEM for the NHDF contained 15% non-inactivated FBS. K562 cells were cultured in RPMI medium completed by 10% inactivated FBS. Additionally, the media were supplemented with antibiotics (streptomycin and penicillin – 1% v/v; Sigma-Aldrich). The cell culture was conducted in 75 cm^2 flasks (Nunc) under standard conditions (37 °C, 5% CO2 humidified atmosphere). Furthermore, the cell lines were frequently tested for mycoplasma using the qRT-PCR technique with specific Mycoplasma primers to confirm the lack of contamination.
(§2) The cells were seeded in 96-well plates (Nunc) with 5,000 or 4,000 cells per well for the cancer cells and NHDF, respectively, and incubated under standard conditions at 37 °C overnight. The culture media were then changed for freshly prepared solutions of the tested compounds in various concentrations. After 72-h incubation the antiproliferative assay was carried out as follows: the solutions of the compounds were changed in each well to 100 µL DMEM without phenol red and 20 µL of CellTiter 96 AQueous One Solution-MTS (Promega). The plates were incubated for 1 h at 37 °C, and the absorbance was then measured at 490 nm using a multi-plate reader (Synergy 4, BioTek). The experiment for each sample was repeated at least three times. The results are presented as the half-maximal inhibitory concentration (IC50) values, which were estimated in comparison to untreated cells (control) and calculated using GraphPad Prism v.8.0 (USA).
(§3) However, the antiproliferative activity of derivative 13 with furan a ring was surprising. […] For this purpose, we selected two pancreatic cancer cell lines: AsPC-1, which is characterised by a deletion of the p53 protein[20] and PANC-1, which carries an R273H mutation. This mutation also occurred in the glioblastoma U-251 cell line[22],[23]. An additional non-adherent line that carries the TP53 mutation that results in the absence of p53 is the K562 leukemic cell line[24]. […] Moreover, 13 was selective toward […], as indicated by its SI values (3.35–9.41). Among all of the tested cell lines, the highest activity of the compound was found against the HCT 116 cells with the wild-type p53 protein (0.069 µM). […] The p53 protein also interacts with the metabolic pathways that are associated with glucose transport[25] as well as small molecules. In light of the above-mentioned facts, we also determined the cytotoxicity of the GLUT inhibitor BAY-876, which is based on a quinoline scaffold. […] Furthermore, BAY-876 was also toxic to normal cells.

U-251 = assay: Monolayer antiproliferative MTS assay; conditions: 2D monolayer; for IC50: MTS, 72-h incubation
Source text: as §1, §2, §3

AsPC-1 = assay: Monolayer antiproliferative MTS assay; conditions: 2D monolayer; for IC50: MTS, 72-h incubation
Procedure: as §2, §3

PANC-1 = assay: Monolayer antiproliferative MTS assay; conditions: 2D monolayer; for IC50: MTS, 72-h incubation
Procedure: as §2, §3

HCT 116 p53+/+ = assay: Apoptosis induction assay (Annexin V/7-AAD); conditions: 0.5 µM, 48 h; control nearly 6%
Procedure: (§4) The cells were seeded in 35 mm Petri dishes (200,000 per dish) and incubated at 37 °C overnight. The following day, the medium was changed for a freshly prepared 0.5 µM solution of 13. Analysis was carried out after 48 h using an FITC Annexin V Apoptosis Detection KIT with 7-AAD (Bio-Legend) according to the manufacturer’s protocol. In brief, both adherent and detached cells were collected, washed two times with cold PBS, and centrifuged at 300 g (5 min). Next, the cells were resuspended in 100 µL Annexin V Binding Buffer, 5 µL of FITC Annexin V, and 5 µL 7-AAD Viability Staining Solution. The samples were incubated in the dark for 15 min at room temperature. The percentage of live and apoptotic (sum of early and late apoptotic) cells was estimated using a Muse™ Cell Analyzer. The experiments were carried out three times.
(§5) Because derivative 13 affected the cell cycle progression, we decided to determine the type of induced cell death by focusing on the apoptosis pathway. The analysis was performed by measuring the green fluorescence of the annexin V – FITC dye conjugate using capillary flow cytometry. Positive staining is observed when the annexin V binds to the disintegrated membrane of apoptotic cells. […]

HCT 116 p53-/- = assay: Apoptosis induction assay (Annexin V/7-AAD); conditions: 0.5 µM, 48 h; control nearly 6%
Procedure: as §4, §5

**Q.** Which IC50 (K562) does the source give for `O=[N+]([O-])c1ccc(/C=C/c2ccnc3ccccc23)o1` [Compound 13] here?
**A.** 93 ± 9 nM

**Q.** What about the “SI (selectivity index) K562” value (K562; relative to NHDF) of the same molecule?
**A.** 6.98

**Q.** What about the IC50 (K562; Homo sapiens, K562, 72 h) of the same molecule?
**A.** < 100 nM

**Q.** And the IC50 (U-251)?
**A.** 87 ± 7 nM

**Q.** What about the “SI (selectivity index) U-251” value (U-251; relative to NHDF) of the same molecule?
**A.** 7.46

**Q.** What about the IC50 (U-251; Homo sapiens, U-251, 72 h) of the same molecule?
**A.** < 100 nM

**Q.** And the IC50 (AsPC-1)?
**A.** 123 ± 7 nM

**Q.** And the “SI (selectivity index) AsPC-1” value (AsPC-1; relative to NHDF)?
**A.** 5.28

**Q.** What about the IC50 (AsPC-1; Homo sapiens, ASPC1, 72 h) of the same molecule?
**A.** ≤ 200 nM

**Q.** What about the IC50 (PANC-1) of the same molecule?
**A.** 193 ± 8 nM

**Q.** And the “SI (selectivity index) PANC-1” value (PANC-1; relative to NHDF)?
**A.** 3.36

**Q.** And the IC50 (PANC-1; Homo sapiens, PANC-1, 72 h)?
**A.** ≤ 200 nM

**Q.** And the “percentage of apoptotic cells” value (HCT 116 p53+/+)?
**A.** 40%

**Q.** What about the “percentage of apoptotic cells” value (HCT 116 p53-/-) of the same molecule?
**A.** 30%
